From ChEMBL document CHEMBL5038606 (J Med Chem, 2022)
Converted amounts (≈) assume the structure as drawn.

Columns and labels:
Plasma = experiment: Anticoagulant activity in human plasma assessed as activated partial thromboplastin time; type: functional
[1] = Metabolic stability in human liver microsomes assessed as half life; type: ADME, Microsome
Coagulation factor XI = Coagulation factor XI (Homo sapiens, UniProt P03951); experiment: Binding affinity to human coagulation factor 11a using L-Pyroglutamyl-L-prolyl-L-arginine p-Nitroaniline as substrate assessed as inhibition constant measured upto 120 mins by spectrophotometric analysis
[2] = Aqueous solubility of the compound at pH 6.5; type: physicochemical; conditions: aqueous medium
[3] = Aqueous solubility of the compound at pH 1.0; type: physicochemical; conditions: aqueous medium
[4] = Fraction unbound in human plasma; type: ADME, cell-free

Coagulation factor XI, sequence (P03951 19-387 limits assumed): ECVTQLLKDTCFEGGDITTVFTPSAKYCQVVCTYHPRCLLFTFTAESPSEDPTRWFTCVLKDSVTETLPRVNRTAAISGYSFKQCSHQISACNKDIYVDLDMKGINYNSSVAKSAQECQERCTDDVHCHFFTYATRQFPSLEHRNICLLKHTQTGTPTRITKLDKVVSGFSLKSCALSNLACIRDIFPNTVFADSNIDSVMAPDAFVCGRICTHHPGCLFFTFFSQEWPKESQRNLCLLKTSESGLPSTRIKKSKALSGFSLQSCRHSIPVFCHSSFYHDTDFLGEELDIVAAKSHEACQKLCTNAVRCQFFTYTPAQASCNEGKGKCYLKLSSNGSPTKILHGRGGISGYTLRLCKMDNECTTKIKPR
Coagulation factor XI, sequence (P03951 388-625 limits assumed): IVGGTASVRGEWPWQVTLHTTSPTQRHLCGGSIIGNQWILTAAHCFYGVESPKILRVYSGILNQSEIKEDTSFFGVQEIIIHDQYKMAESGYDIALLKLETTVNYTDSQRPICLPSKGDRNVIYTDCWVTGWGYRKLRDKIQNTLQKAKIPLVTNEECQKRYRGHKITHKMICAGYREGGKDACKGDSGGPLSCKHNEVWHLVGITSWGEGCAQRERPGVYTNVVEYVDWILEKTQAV

half-life [1] [min]	Ki (Coagulation factor XI) [nM]	SMILES	EC1.5 (Plasma) [µM]	further results
	548	C[C@@H]1CCC[C@H](N2CCC(c3c(F)ccc(Cl)c3F)=CC2=O)c2cc(ccn2)-c2[nH]ncc2NC1=O		
10	1.3	CCn1ncc2c1-c1ccnc(c1)[C@@H](N1CCC(c3cc(Cl)ccc3-n3ccnn3)=CC1=O)CCC[C@@H](C)C(=O)N2	0.48	
	2.7	C[C@@H]1CCC[C@H](N2CCC(c3cc(Cl)ccc3-n3ccnc3)=CC2=O)c2cc(ccn2)-c2c(cnn2C)NC1=O	0.6	

The next lines start with the compound.

SMILES	half-life [1] [min]	Ki (Coagulation factor XI) [nM]	EC1.5 (Plasma) [µM]	further results
C[C@@H]1CCC[C@H](N2CCC(c3cc(Cl)ccc3-n3cc(Cl)nn3)=CC2=O)c2cc(ccn2)-c2c(cnn2C)NC1=O	65		0.3	
C[C@@H]1CCC[C@H](N2CCC(c3cc(Cl)ccc3-n3cccn3)=CC2=O)c2cc(ccn2)-c2c(cnn2C)NC1=O		11	8.9	
C[C@@H]1CCC[C@H](N2CCC(c3c(F)ccc(Cl)c3F)=CC2=O)c2cc(ccn2)-c2cn[nH]c2NC1=O		330		
C[C@@H]1CCC[C@H](N2CCC(c3c(F)ccc(Cl)c3F)=CC2=O)c2cc(ccn2)-c2c(cnn2C)NC1=O				solubility [2]: 0.15 µg/mL (≈ 0.285 µM); solubility [3]: 3 µg/mL (≈ 5.7 µM); fraction unbound [4]: 0.007
C[C@@H]1CCC[C@H](N2CCC(c3cc(Cl)ccc3-n3ccnn3)=CC2=O)c2cc(ccn2)-c2c(cnn2C2CCC2)NC1=O	6		3.04	
